Data: PubChem BioAssay (NCI)
Where “and” joins values, the source holds several entries; their conditions need not be identical. Identical values can stand only once.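 Step 1: Grow cells in 96-well plates. Step 2: Expose to compound for 48 hours at 5 concentrations. Step 3: Interpolate endpoints linearly; if unreached, use highest concentration. GI50 = concentration required for 50% inhibition of growth. TGI marks complete inhibition of growth.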

Legend:
Assay in all cases: NCI anticancer screen, dose series, 48 h
[1] = test system: A549 NSCLC
[2] = test system: HOP-62 NSCLC
[3] = test system: ACHN renal
[4] = test system: EKVX NSCLC
[5] = test system: HOP-92 NSCLC
[6] = test system: OVCAR-8 ovarian
[7] = test system: SK-MEL-2 melanoma
[8] = test system: PC-3 prostate
[9] = test system: UACC-62 melanoma
[10] = test system: HL-60(TB) leukemia

SMILES	TGI [1]	TGI [2]	TGI [3] [µM]	TGI [4] [µM]	TGI [5]	TGI [6] [µM]	TGI [7] [µM]	GI50 [1] [µM]	GI50 [2]	GI50 [3] [µM]	GI50 [4] [µM]	GI50 [8] [µM]	TGI [8] [µM]	GI50 [5]	GI50 [6] [µM]	GI50 [7]	GI50 [9] [µM]	TGI [9] [µM]	TGI [10]
CCCCCCCCCCC/C(=N/O)c1ccc(O)c2ncccc12	35.8 µM	17.5 µM	6.14	20.1	5.47 µM	16.2	5.86												
O=Cc1c(-c2cc(O)ccc2O)nc2sccn12	> 100 µM	26.4 µM	22.6	93.1	27.3 µM	> 100	55.9	25.7	10.4 µM	9.85	28.4	11.9	38.3	10.7 µM	21.4	20.1 µM	10.6	32	
C[C@]12CCC3[C@@H](C[C@@H]4SC(Nc5ccccc5)=N[C@@]45CC(=O)CC[C@]35C)[C@@H]1CCC2=O (stereo partly specified)	> 100 µM	> 100 µM	29.5	> 100	67.9 µM	> 100	60.8	26.4	22.4 µM	7.81	38.8	5.52	63.7	18.7 µM	7.61	17.1 µM	9.54	29.6	
OCCCCC#Cc1ccccc1C#Cc1ccccc1	70.4 µM	30.6 µM	29.1	22.4	22.6 µM	59.5	> 100	21.3	16.3 µM	15.2	6.59	14.1	27.1	9.55 µM	24.5	40 µM	11.1	23.5	
Clc1ccc(Cl)c2[s+]snc12	> 100 µM	> 100 µM	> 100	> 100	> 100 µM	> 100												> 100	> 100 µM
C1CC[N-]CC1.C1CC[N-]CC1.C1CC[N-]CC1.C1CC[N-]CC1.[Cl][Rh][Cl]	> 100 µM	> 100 µM	> 100		22.1 µM	> 100	41.8	3.12	4.41 µM	50.1				4.39 µM	4.07	12.7 µM			
COc1ccc(C=C2C(=O)OC(C)(C)OC2=O)cc1OC	> 100 µM	> 100 µM	> 100	> 100		> 100	> 100											> 100	
O=C1NC(=S)NC(=O)C1=Cc1cc2c(cc1[N+](=O)[O-])OCO2	> 100 µM	> 100 µM	> 100	> 100		> 100	> 100											> 100	> 100 µM
CCCCCCCCCCCCCCCCCC(=O)OCC(CN(C)CCN(C)C)OC(=O)CCCCCCCCCCCCCCCCC (stereo unspecified)	> 100 µM	> 100 µM	> 100	> 100	> 100 µM	> 100	> 100											> 100	
COC(=O)C1CC(C(=O)OC)c2nc3cc(C)ccc3nc21 (stereo unspecified)	> 100 µM	> 100 µM	> 100	> 100	> 100 µM	> 100	> 100											> 100	> 100 µM
N#CC(C(=O)/C(=N/N)C(C#N)c1ccc(Cl)cc1)c1ccc(Cl)cc1 (stereo unspecified)	> 100 µM	> 100 µM	> 100	> 100	> 100 µM	> 100	> 100											> 100	> 100 µM
CCOC(=O)CC(=O)Sc1ccccc1	60.6 µM	65.6 µM	65.7	74	89.5 µM	34.6	67.9											30.7	48.6 µM
CCCN(CCCCC(NC(C)=O)C(=O)NCc1ccccc1)C(=O)NCCCl (stereo unspecified)	> 100 µM	> 100 µM	> 100	> 100	> 100 µM	> 100												> 100	> 100 µM
O=c1c2ccccc2c2ccccc2c(=O)n1-c1cc2c3ccccc3ccc2c2ccccc12	> 100 µM	> 100 µM	> 100	> 100	> 100 µM	> 100	> 100						> 100					> 100	
Cc1c(/C=N/NS(=O)(=O)c2ccccc2)no[n+]1[O-]	> 100 µM			> 100	> 100 µM	> 100	> 100											> 100	> 100 µM
CCOP(=O)(OCC)C(NC(c1ccccc1)c1ccccc1)c1ccccc1 (stereo unspecified)	30 µM	30.3 µM	26.3	28.5	31.9 µM	33.6	52.2	15	16.6 µM	13.2	13.4	12	27.1	15.6 µM	16.3	22.3 µM	12.1	25.9	
CCOc1ccc(N=Cc2cccc3cccnc23)cc1	> 100 µM	> 100 µM	> 100	> 100	> 100 µM	> 100	> 100											> 100	62.2 µM
Clc1ccc(-n2nnc(C3=NCCN3)c2-c2ccccc2)cc1	> 100 µM	> 100 µM	> 100	> 100	> 100 µM	> 100	> 100											> 100	> 100 µM
COC(=O)C1=C(C)N(NC(N)=O)C2(N)N(NC(N)=O)C(C)=C(C(=O)OC)C12C(=O)OC (stereo unspecified)	> 100 µM	> 100 µM	> 100	> 100	> 100 µM	> 100	> 100											> 100	> 100 µM
COc1ccc2[nH]c(-c3ccccn3)cc(=O)c2c1	> 100 µM	> 100 µM	> 100	> 100	> 100 µM	> 100												> 100	> 100 µM
[N-]=[N+]=NC(c1cn(C2CC(O)C(CO)O2)c(=O)[nH]c1=O)C(Br)I (stereo unspecified)	> 100 µM	> 100 µM	> 100	> 100	> 100 µM	> 100	> 100											> 100	> 100 µM

SMILES	TGI [1]	TGI [2]	TGI [3] [µM]	TGI [4] [µM]	TGI [5]	TGI [6] [µM]	TGI [7] [µM]	GI50 [1] [µM]	GI50 [2]	GI50 [3] [µM]	GI50 [4] [µM]	GI50 [8] [µM]	TGI [8] [µM]	GI50 [5]	GI50 [6] [µM]	GI50 [7]	GI50 [9] [µM]	TGI [9] [µM]	TGI [10]
O=C1C(Cl)C(c2cccc(O)c2)N1n1cnc2ccccc2c1=O (stereo unspecified)	> 100 µM	> 100 µM	> 100	> 100		> 100	> 100											> 100	> 100 µM
CC(O)/C=C/C(CCC(C)CO)C(C)C (stereo unspecified)	> 100 µM	> 100 µM	> 100	> 100	> 100 µM	> 100	> 100											> 100	> 100 µM
CC1OC(n2ncc(=O)[nH]c2=O)C=CC1=O (stereo unspecified)	> 100 µM	> 100 µM	> 100		> 100 µM and 71.9 µM	> 100	> 100		> 100 µM and 42.1 µM					71.1 µM and 32.8 µM		> 100 µM and 49.2 µM		> 100	57.5 µM and 52.7 µM
COc1ccc(/C=N/N=C(\N)NO)cc1OC	95.8 µM	> 100 µM	> 100	> 100	> 100 µM	> 100	> 100											72.1	> 100 µM
O=C1C=C[C@@]23CC1C(O)C[C@H]2C=Cc1ccccc13 (stereo partly specified)	> 100 µM	> 100 µM	> 100		> 100 µM	> 100	> 100											> 100	> 100 µM
O=C1C(Cl)=C(Cl)C(=O)N1C1C2CC3CC(C2)CC1C3 (stereo unspecified)	> 100 µM	> 100 µM	> 100	> 100	> 100 µM	> 100	> 100											> 100	79.4 µM
C/C(O)=C(\N=O)C(=O)NCCc1ccccc1	> 100 µM	> 100 µM	> 100	> 100	> 100 µM	> 100	> 100											> 100	> 100 µM
CC(=O)OC1C(=O)C(O)C(C)OC1O[C@@H]1C[C@@]2(C)[C@@H]3CC=C4[C@@H](C[C@H](O)C(=O)C4(C)C)[C@]3(C)C(=O)C[C@]2(C)[C@H]1[C@@](C)(O)C(=O)/C=C/C(C)(C)O (stereo partly specified)	> 10 µM	5.42 µM	7.38	> 7.55	2.52 µM	> 10										0.055 µM		> 7.98	7.1 µM
O=C1c2cccc3cc([N+](=O)[O-])cc(c23)C(=O)N1CCNCCNCCNCCN1C(=O)c2cccc3cc([N+](=O)[O-])cc(c23)C1=O	0.287 µM and 0.196 µM	0.216 µM and 0.444 µM		0.88	0.112 µM	0.512	0.283											0.106	
[Cl][Bi]([O]c1ccccn1)[O]c1ccccn1	> 100 µM		> 100	> 100		> 100	> 100	> 100		> 100	> 100				> 100	> 100 µM	> 100	> 100	
CCN1C2=NC(=O)N(C)C(=O)C2(Cl)C(C(SC)S(=O)(=O)c2ccc(C)cc2)c2ccccc21 (stereo unspecified)	> 100 µM	> 100 µM		> 100	71.3 µM	50.4	> 100											> 100	19.7 µM
O=c1n(C2CCCCC2)c(=C(Cl)Cl)c(=C(Cl)Cl)n1C1CCCCC1	> 100 µM	> 100 µM	> 100	> 100		> 100	> 100											> 100	> 100 µM
Cc1cccc(C(C)(C)C)c1NC(=O)C(=O)C(C(=O)/C=C\c1ccccc1)C1OC(=O)c2ccccc21 (stereo unspecified)	> 100 µM	> 100 µM	> 100	> 100	> 100 µM	> 100												> 100	> 100 µM
CC(C)N(C(=O)C12C3C4C5(C#N)C3C1(I)C5C42I)C(C)C (stereo unspecified)	> 100 µM	> 100 µM	> 100	> 100	> 100 µM	> 100	> 100											> 100	> 63.6 µM
CSc1nc(NC2OCC(OC(C)=O)C(OC(C)=O)C2OC(C)=O)c2c(OC(C)=O)c(C)c(=O)oc2n1 (stereo unspecified)	> 100 µM	> 100 µM	> 100	> 100	> 100 µM	> 100	> 100											> 100	> 100 µM
CCCCCCCCCC(=O)CC(=O)c1ccc(O)cc1O	> 100 µM	46.5 µM	89.3	73	79.4 µM	67.9	49.9											43	53.9 µM
O=S(=O)([O-])c1cccc2cccc(N=Cc3ccccc3[O-])c12.O=S(=O)([O-])c1cccc2cccc(N=Cc3ccccc3[O-])c12.[O]=[U]=[O]	> 100 µM	> 100 µM	> 100	> 100	89.6 µM	> 100	> 100	44.4	42.6 µM	38.5	> 100			30.1 µM	38.5	> 100 µM	> 100	> 100	
O=C(O)c1ccc2c(c1)Cc1cc([N+](=O)[O-])ccc1-2	> 100 µM	> 100 µM	> 100	> 100	> 100 µM	> 100	> 100											> 100	> 100 µM
Nc1ccc2c(SCCSc3c4ccccc4nc4cc(N)ccc34)c3ccccc3nc2c1	> 100 µM	> 100 µM	> 100	> 100	> 100 µM	> 100	> 100						> 100					> 100	
COCCn1cc(-c2csc(-c3c[nH]c4ccccc34)n2)c2cccnc21	> 100 µM	> 100 µM	> 100	> 100	> 100 µM	> 100	> 100	7.1	2.82 µM	5.59	2	6.81	> 100	14.9 µM	8	7.38 µM	4.58	> 100	
